In patent publication US5494932A, “Sulfonic stilbene derivatives in the treatment of viral disease” (Merrell Dow Pharmaceuticals Inc., priority 1991, dated 1996):
Where two headings read alike, the source gives them in different places.

Key:
HSV 2 = assay: Plaque reduction assay, HSV 2; assay type: cell-based
Protocol: Protocol: Plaque reduction assay. Treatment after adsorption during incubation.

[1] = system: HIV-1 strain RF in C8166 cells; assay: Acute HIV-1 (RF) infection of C8166 cells: syncytial and p24 antigen assays; assay type: cell-based, HIV-1 (human C8166 cells)
Text: (§1) When evaluated in the human T cell line JM acutely infected with the GB8 virus, DIDS, H2 DIDS and SITS (Table I) suppressed virus-induced multinucleated giant cell formation (syncytia). […] We also examined the antiviral properties of these compounds in a second host-cell/virus system, i.e., the highly CD4+ C8166 cells infected with the Haitian strain of HIV-1, RF.
(§2) The cell lines used were the semi-mature human lymphoblastoid leukemia T cell line JM, the human T-lymphoblastoid C8166 cell line, the human cutaneous T cell lymphoma line H9 and, the human T cell transformed line MT-4. Stocks of HIV-1 strains RF and GB8 (kindly provided by Dr. Graham Farrar, Center for Applied Microbiological Research, Porton Dawn, England) were prepared from chronically infected H9 cells and acutely infected JM cells, respectively. Virus stocks consisted of cell-free growth medium (RPMI 1640 plus 10% fetal calf serum) containing freshly shed virus. Virus titres were determined by a standard plaque reduction assay.
(§3) Virus stocks (strains RF or GB8) were diluted into growth medium containing various concentrations of DIDS, H2 DIDS or SITS. The required number of cells were then immediately added and the virus allowed to absorb for 2 hours at 37° C. to give a multiplicity of infection (MOI) of 0.001 infectious units/cell. The virus-infected cells were pelleted, washed three times in phosphate buffered saline (PBS), and resuspended in fresh growth medium containing the appropriate concentrations of stilbene disulfonic acids. Cells were then distributed into 24-well culture plates (Falcon) and assayed as described below for virus infection. Alternatively, cells were first infected with HIV-1 (strains RF or GB8) for 2 hours at 37° C. at the above MOI. After extensive washing, cells were replated into fresh growth medium containing various concentrations of stilbene disulfonic acids. In the above experiments, syncytia were scored between 2 and 4 days postinfection (p.i.) in triplicate using an Olympus CK2 inverted microscope. The culture fluids were recovered between 3 and 5 days p.i., clarified by low speed centrifugation (2,000 rpm) for 5 minutes and the level of HIV-1 p24 core antigen in the supernatants was determined by p24 antigen ELISA (Coulter). The concentrations of stilbene disulfonic acids giving 50% inhibition of HIV-1 growth (IC50) were determined from the dose-response curves by linear regression analysis.

[2] = system: HIV-1 strain GB8 in JM cells; assay: Acute HIV-1 (GB8) infection of JM cells: syncytial counts and p24 antigen; assay type: cell-based, HIV-1 (human T cell line JM); conditions: for Mean Syncytial Counts: at day 4 p.i.
Text: as §1, §2, §3
Protocol: JM cells were infected with HIV-1 to give a multiplicity of infection of 0.001. Virus adsorption was for 2 hours at room temperature. The cells were washed and distributed into wells containing different concentrations of test compounds and incubated. After 2 days the cells were observed and syncytia were counted. The cell-free supernatant fluids were harvested at 4 and 6 days post infection and assayed for levels of p24 viral core antigen and after 6 days the supernatants were also titrated to determine levels of infectivity.

[3] = system: HIV-1 strain GB8 in JM cells; assay: Established HIV-1 (GB8) infection of JM cells, post-infection addition: syncytia and p24 antigen; assay type: cell-based, HIV-1 (human T cell line JM); conditions: 100 μg/ml
[4] = JM cells acutely infected with GB8

Question: For `CC(=O)Nc1ccc(C=Cc2ccc(N=C=S)cc2S(=O)(=O)O)c(S(=O)(=O)O)c1` [SITS, 4-acetamido-4'-isothiocyanatostilbene-2,2'-disulfonic acid], which Plaque counts (HSV 2; 0.1 μg/ml, first count) is on record?
Answer: 34

Question: And the Plaque counts (HSV 2; 0.1 μg/ml, second count)?
Answer: 26

Question: What about the Plaque counts (HSV 2; 1 μg/ml, first count) of the same molecule?
Answer: 28

Question: What about the Plaque counts (HSV 2; 1 μg/ml, second count) of the same molecule?
Answer: 25

Question: What about the Plaque counts (HSV 2; 1 μg/ml, third count) of the same molecule?
Answer: 23

Question: What about the Plaque counts (HSV 2; 10 μg/ml, first count) of the same molecule?
Answer: 25

Question: And the Plaque counts (HSV 2; 10 μg/ml, second count)?
Answer: 25

Question: What about the Plaque counts (HSV 2; 10 μg/ml, third count) of the same molecule?
Answer: 24

Question: What about the Plaque counts (HSV 2; 100 μg/ml, first count) of the same molecule?
Answer: 16

Question: What about the Plaque counts (HSV 2; 100 μg/ml, second count) of the same molecule?
Answer: 13

Question: What about the activity at 0.1 µg/mL (HSV 2; read-out: Mean % VC (plaques)) of the same molecule?
Answer: > 100%

Question: What about the activity at 1 µg/mL (HSV 2; read-out: Mean % VC (plaques)) of the same molecule?
Answer: 100%

Question: What about the activity at 10 µg/mL (HSV 2; read-out: Mean % VC (plaques)) of the same molecule?
Answer: 100%

Question: What about the activity at 100 µg/mL (HSV 2; read-out: Mean % VC (plaques)) of the same molecule?
Answer: 63%

Question: What about the “activity in syncytial and p24 antigen assays” value ([1]; 100 μg/ml, C8166 cells infected with RF) of the same molecule?
Answer: inactive

Question: What about the activity at 50 µg/mL ([1]; Human immunodeficiency virus 1, 50 µg/mL, RF strain in C8166 cells, read-out: P24 Antigen % Virus Control (values in parenthesis)) of the same molecule?
Answer: > 100%

Question: And the activity at 100 µg/mL ([1]; Human immunodeficiency virus 1, 100 µg/mL, RF strain in C8166 cells, read-out: P24 Antigen % Virus Control (values in parenthesis))?
Answer: > 100%

Question: And the activity at 200 µg/mL ([1]; Human immunodeficiency virus 1, 200 µg/mL, RF strain in C8166 cells, read-out: P24 Antigen % Virus Control (values in parenthesis))?
Answer: > 100%

Question: What about the “Mean Syncytial Counts 2 Days p.i.” value ([2]; 3 μg/ml) of the same molecule?
Answer: 93

Question: And the “Mean Syncytial Counts” value ([2]; 6 μM)?
Answer: 93

Question: What about the “Mean Syncytial Counts 2 Days p.i.” value ([2]; 6 μg/ml) of the same molecule?
Answer: 72

Question: What about the “Mean Syncytial Counts” value ([2]; 12 μM) of the same molecule?
Answer: 72

Question: And the “Mean Syncytial Counts 2 Days p.i.” value ([2]; 12.5 μg/ml)?
Answer: 63

Question: And the “p24 4 days p.i.” value ([2]; 12.5 μg/ml)?
Answer: 185000 pg/mL

Question: And the “p24 6 days p.i.” value ([2]; 12.5 μg/ml)?
Answer: 1.51 × 10^6 pg/m.

Question: And the “Mean Syncytial Counts” value ([2]; 25 μM)?
Answer: 63

Question: And the “Mean Syncytial Counts 2 Days p.i.” value ([2]; 25 μg/ml)?
Answer: 63

Question: What about the “p24 4 days p.i.” value ([2]; 25 μg/ml) of the same molecule?
Answer: 153000 pg/mL

Question: What about the “p24 6 days p.i.” value ([2]; 25 μg/ml) of the same molecule?
Answer: 1.26 × 10^6 pg/m.

Question: And the “Mean Syncytial Counts” value ([2]; 50 μM)?
Answer: 63

Question: What about the “Mean Syncytial Counts 2 Days p.i.” value ([2]; 50 μg/ml) of the same molecule?
Answer: 15

Question: And the “p24 4 days p.i.” value ([2]; 50 μg/ml)?
Answer: 62500 pg/mL

Question: And the “p24 6 days p.i.” value ([2]; 50 μg/ml)?
Answer: 2.45 × 10^5 pg/m.

Question: What about the “Mean Syncytial Counts” value ([2]; 100 μM) of the same molecule?
Answer: 15

Question: What about the “Mean Syncytial Counts 2 Days p.i.” value ([2]; 100 μg/ml) of the same molecule?
Answer: 0

Question: What about the “p24 4 days p.i.” value ([2]; 100 μg/ml) of the same molecule?
Answer: 1140 pg/mL

Question: And the “p24 6 days p.i.” value ([2]; 100 μg/ml)?
Answer: 2.2 × 10^4 pg/m.

Question: And the “Mean Syncytial Counts” value ([2]; 200 μM)?
Answer: 0

Question: And the activity at 25 µg/mL ([2]; Human immunodeficiency virus 1, 96 h, read-out: p24 4 days p.i., % Control)?
Answer: 100%

Question: What about the activity at 12.5 µg/mL ([2]; Human immunodeficiency virus 1, 96 h, 12.5 μg/ml, read-out: p24 4 days p.i., % Control) of the same molecule?
Answer: 100%

Question: And the activity at 50 µg/mL ([2]; Human immunodeficiency virus 1, 96 h, 50 μg/ml, read-out: p24 4 days p.i., % Control)?
Answer: 85%

Question: And the activity at 100 µg/mL ([2]; Human immunodeficiency virus 1, 96 h, 100 μg/ml, read-out: p24 4 days p.i., % Control)?
Answer: 1.6%

Question: And the activity at 200 µM ([2]; Human immunodeficiency virus 1, 144 h, read-out: P24 Antigen % Virus Control)?
Answer: 1.6%

Question: What about the activity at 12.5 µg/mL ([2]; Human immunodeficiency virus 1, 144 h, 12.5 μg/ml, read-out: p24 6 days p.i., % Control) of the same molecule?
Answer: 69%

Question: What about the activity at 25 µg/mL ([2]; Human immunodeficiency virus 1, 144 h, 25 μg/ml, read-out: p24 6 days p.i., % Control) of the same molecule?
Answer: 58%

Question: What about the activity at 50 µg/mL ([2]; Human immunodeficiency virus 1, 144 h, 50 µg/mL, GB8 in JM cells, day 6 p.i., read-out: P24 Antigen % Virus Control) of the same molecule?
Answer: 100%

Question: What about the activity at 50 µg/mL ([2]; Human immunodeficiency virus 1, 144 h, 50 μg/ml, read-out: p24 6 days p.i., % Control) of the same molecule?
Answer: 11.2%

Question: What about the activity at 100 µg/mL ([2]; Human immunodeficiency virus 1, 144 h, 100 µg/mL, GB8 in JM cells, day 6 p.i., read-out: P24 Antigen % Virus Control) of the same molecule?
Answer: 85%

Question: And the activity at 100 µg/mL ([2]; Human immunodeficiency virus 1, 144 h, 100 μg/ml, read-out: p24 6 days p.i., % Control)?
Answer: 1%

Question: And the “inhibition of p24 viral core antigen” value [2, 4]?
Answer: dose-dependent inhibition

Question: What about the “virus-induced multinucleated giant cell formation (syncytia)” value [2, 4] of the same molecule?
Answer: suppressed

Question: What about the “order of antiviral potency” value ([2]; in all three host cell/virus systems (JM/GB8, C8166/RF, MT-4/RF)) of the same molecule?
Answer: DIDS>H2 DIDS>>SITS

Question: And the “Mean Syncytia 51 hrs” value ([3]; time of addition 0h)?
Answer: 4

Question: What about the “Mean Syncytia 51 hrs” value ([3]; time of addition 24h) of the same molecule?
Answer: 35
